Measured values: patent US20260209214A1, “LSD1 MODULATORS” (RECURSION PHARMACEUTICALS, INC., priority 2022, published 2026)
Structures can show the parent of a compound that is named as a salt.

molecular target: Recombinant human LSD1 (Homo sapiens, UniProt O60341); assay: LSD1 inhibition assay (HTRF LSD1 Histone H3K4 mono-demethylation assay, me1->me0); assay type: biochemical; conditions: 20 nM recombinant human LSD1, 95 nM H3K4(me1) biotinylated peptide, 15 min preincubation, 60 min at 25° C., read-out: LSD1 inhibition IC50 (nM range)
Method: LSD1 biochemical activity was measured using the HTRF® LSD1 Histone H3K4 mono-demethylation assay (me1->me0). Briefly, the enzymatic buffer was prepared by addition of 50 mM Tris-HCl (Sigma cat #T2663-IL), 50 mM NaCl (ThermoFisher cat #AM9759) and 0.01% Tween 20 (ThermoFisher cat #J20605.AP) in distilled water (final pH 8.5). This buffer was supplemented with 10 μM FAD (Fisher Scientific cat #11411838) and 1 mM DTT (Sigma cat #D0632). For the assay, H3K4(me1) biotinylated peptide substrate (Anaspec, cat #64355) was added to provide a final assay concentration of 95 nM. The streptavidin-XL665 (Cisbio cat #610SAXLA) and H3K4 me0-Eu(K) antibody-cryptate (Cisbio, cat #61 KAOKAD) detection reagents were mixed according to the manufacturer's instructions. Test compounds were diluted in DMSO in a series of 10 semi-log step doses; 10 nL of each compound dose were dispensed in 384 well plates. Recombinant human LSD1 was diluted into enzymatic buffer to provide a final assay concentration of 20 nM and added to the tested compounds for 15 minutes. The reaction was started by addition of the substrate and incubated at 25° C. for 60 minutes. The detection reagents were added, and the plate was incubated in the dark for 90 minutes. Fluorescence was measured on an Envision 2103 plate reader with optical setup for […] in the HTRF mode. The ratio of acceptor and donor emission signals was calculated for each well. Percent inhibition values were calculated from the HTRF ratios at different doses and fitted to a 4-parameter logistic curve to determine IC50 values. […]

SMILES	IC50 [nM]
Cc1c(CN2[C@@H]3CC[C@H]2[C@@H](N)C3)cccc1-c1ccc(C#N)c(F)c1 (racemic) [Example 306, 3'-{[(1S,2S,4R)-2-amino-7-azabicyclo[2.2.1]heptan-7-yl]methyl}-3-fluoro-2'-methyl-[1,1'-biphenyl]-4-carbonitrile]	100 to 1000
CC1(c2c(CN3[C@@H]4CC[C@H]3[C@@H](N)C4)cccc2-c2ccc(C#N)c(F)c2)CC1 (racemic) [Example 307, 3'-{[(1S,2S,4R)-2-amino-7-azabicyclo[2.2.1]heptan-7-yl]methyl}-3-fluoro-2'-(1-methylcyclopropyl)-[1,1'-biphenyl]-4-carbonitrile]	100 to 1000
N#Cc1ccc(-c2cc(CN3[C@@H]4CC[C@H]3[C@@H](N)C4)ccc2C2CC2)cc1F (racemic) [Example 309, 5'-{[(1S,2S,4R)-2-amino-7-azabicyclo[2.2.1]heptan-7-yl]methyl}-2'-cyclopropyl-3-fluoro-[1,1'-biphenyl]-4-carbonitrile]	10 to 25
N#Cc1ccc(-c2cc(CN3[C@@H]4CC[C@H]3[C@@H](N)C4)ccc2OC(F)F)cc1F (racemic) [Example 310, 5'-{[(1S,2S,4R)-2-amino-7-azabicyclo[2.2.1]heptan-7-yl]methyl}-2'-(difluoromethoxy)-3-fluoro-[1,1'-biphenyl]-4-carbonitrile]	10 to 25
N#Cc1ccc(-c2cc(CN3[C@@H]4CC[C@H]3[C@@H](N)C4)ccc2OCC2CC2)cc1F (racemic) [Example 311, 5'-{[(1S,2S,4R)-2-amino-7-azabicyclo[2.2.1]heptan-7-yl]methyl}-2'-(cyclopropylmethoxy)-3-fluoro-[1,1'-biphenyl]-4-carbonitrile]	10 to 25
N#Cc1ccc(-c2cc(CN3[C@@H]4CC[C@H]3[C@@H](N)C4)ccc2OC2CCC2)cc1F (racemic) [Example 312, 5'-{[(1S,2S,4R)-2-amino-7-azabicyclo[2.2.1]heptan-7-yl]methyl}-2'-cyclobutoxy-3-fluoro-[1,1'-biphenyl]-4-carbonitrile]	10 to 25
N#Cc1ccc(-c2cc(CN3[C@@H]4CC[C@H]3[C@@H](N)C4)ccc2COC(F)F)cc1F (racemic) [Example 313, 5'-{[(1S,2S,4R)-2-amino-7-azabicyclo[2.2.1]heptan-7-yl]methyl}-2'-[(difluoromethoxy)methyl]-3-fluoro-[1,1'-biphenyl]-4-carbonitrile]	10 to 25
N#Cc1ccc(-c2cc(CN3[C@@H]4CC[C@H]3[C@@H](N)C4)ccc2-c2ccns2)cc1F (racemic) [Example 314, 5'-{[(1S,2S,4R)-2-amino-7-azabicyclo[2.2.1]heptan-7-yl]methyl}-3-fluoro-2'-(1,2-thiazol-5-yl)-[1,1'-biphenyl]-4-carbonitrile]	10 to 25
N#Cc1ccc(-c2cc(CN3[C@@H]4CC[C@H]3[C@@H](N)C4)ccc2OCCC(F)F)cc1F (racemic) [Example 315, 5'-{[(1S,2S,4R)-2-amino-7-azabicyclo[2.2.1]heptan-7-yl]methyl}-2'-(3,3-difluoropropoxy)-3-fluoro-[1,1'-biphenyl]-4-carbonitrile]	< 10
N#Cc1ccc(-c2cc(CN3[C@@H]4CC[C@H]3[C@@H](N)C4)ccc2OCC(F)(F)F)cc1F (racemic) [Example 316, 5'-{[(1S,2S,4R)-2-amino-7-azabicyclo[2.2.1]heptan-7-yl]methyl}-3-fluoro-2'-(2,2,2-trifluoroethoxy)-[1,1'-biphenyl]-4-carbonitrile]	10 to 25
COc1cnc(-c2ccc(CN3[C@@H]4CC[C@H]3[C@@H](N)C4)cc2-c2ccc(C#N)c(F)c2)cn1 (racemic) [Example 317, 5'-{[(1S,2S,4R)-2-amino-7-azabicyclo[2.2.1]heptan-7-yl]methyl}-3-fluoro-2'-(5-methoxypyrazin-2-yl)-[1,1'-biphenyl]-4-carbonitrile]	10 to 25
N#Cc1ccc(-c2cccc(CN3[C@@H]4CC[C@H]3[C@H](N)C4)c2C2CC2)cc1F (racemic) [Example 319, 3'-{[(1S,2R,4R)-2-amino-7-azabicyclo[2.2.1]heptan-7-yl]methyl}-2'-cyclopropyl-3-fluoro-[1,1'-biphenyl]-4-carbonitrile]	25 to 100
COCc1c(CN2[C@@H]3CC[C@H]2[C@@H](N)C3)cccc1-c1ccc(C#N)c(F)c1 (racemic) [Example 320, 3'-{[(1S,2S,4R)-2-amino-7-azabicyclo[2.2.1]heptan-7-yl]methyl}-3-fluoro-2'-(methoxymethyl)-[1,1'-biphenyl]-4-carbonitrile]	100 to 1000
C[C@@H]1CCN(Cc2cccc(-c3ccc(C#N)c(F)c3)c2Cl)C[C@H]1N (racemic) [Example 331, 3'-{[(3S,4R)-3-amino-4-methylpiperidin-1-yl]methyl}-2'-chloro-3-fluoro-[1,1'-biphenyl]-4-carbonitrile]	> 1000
N#Cc1ccc(-c2cccc(C[C@H]3CNCCO3)c2-c2ccns2)cc1 (single isomer, unassigned) [Example 5, hydrochloride]	10 to 25
N#Cc1ccc(-c2cc(F)cc(C[C@H]3CNCCO3)c2-c2ccns2)cc1F (single isomer, unassigned) [Example 6]	10 to 25
N#Cc1ccc(-c2cccc(C[C@@H]3CNCCO3)c2-c2ccno2)cc1 (single isomer, unassigned) [Example 7]	10 to 25
N#Cc1ccc(-c2cccc(C[C@@H]3CNCCO3)c2C2=CCOC2)cc1F (single isomer, unassigned) [Example 8]	< 10
N#Cc1ccc(-c2cccc(C[C@H]3CNCCO3)c2-c2ccno2)cc1 (single isomer, unassigned) [Example 9]	10 to 25

SMILES	IC50 [nM]
N#Cc1ccc(-c2cccc(C[C@@H]3CNCCO3)c2-c2ccns2)cc1 (single isomer, unassigned) [Example 11]	10 to 25
N#Cc1ccc(-c2cccc(C[C@@H]3CNCCO3)c2-c2ccno2)cc1F (single isomer, unassigned) [Example 13]	10 to 25
N#Cc1ccc(-c2cc(F)cc(C[C@@H]3CNCCO3)c2-c2ccns2)cc1F (single isomer, unassigned) [Example 14]	10 to 25
N#Cc1ccc(-c2cccc(C[C@H]3CNCCO3)c2-c2ccno2)cc1F (single isomer, unassigned) [Example 17]	10 to 25
N#Cc1ccc(-c2cccc(C[C@H]3CNCCO3)c2C2=CCOC2)cc1F (single isomer, unassigned) [Example 22]	10 to 25
N#Cc1ccc(-c2cccc(C[C@@H]3CNCCO3)c2-c2cncs2)cc1F (single isomer, unassigned) [Example 23]	10 to 25
N#Cc1ccc(-c2cccc(C[C@@H]3CNCCO3)c2-c2ocnc2F)cc1F (single isomer, unassigned) [Example 26]	< 10
N#Cc1ccc(-c2cccc(C[C@H]3CNCCO3)c2-c2cncs2)cc1F (single isomer, unassigned) [Example 30]	10 to 25
N#Cc1ccc(-c2cccc(C[C@H]3CNCCO3)c2-c2scnc2Cl)cc1F (single isomer, unassigned) [Example 31]	25 to 100
N#Cc1ccc(-c2cccc(C[C@@H]3CNCCO3)c2-c2scnc2Cl)cc1F (single isomer, unassigned) [Example 37]	10 to 25
N#Cc1ccc(-c2cc(C[C@@H]3CNCCO3)ccc2N2CCC2)cc1F (single isomer, unassigned) [Example 41]	100 to 1000
N#Cc1ccc(-c2cc(C[C@H]3CNCCO3)ccc2N2CCC2)cc1F (single isomer, unassigned) [Example 54]	100 to 1000
Cc1cc(NC[C@@H]2CNCCO2)c(Cl)c(-c2ccc(C#N)c(F)c2)c1 (single isomer, unassigned) [Example 87]	> 1000
N#Cc1ccc(-c2ccc(F)c(CN3[C@H]4CC[C@@H]3[C@H](N)C4)c2OC(F)F)cc1F (single isomer, unassigned) [Example 169]	10 to 25
CN[C@@H]1C[C@@H]2CC[C@H]1N2Cc1cccc(-c2ccc(C#N)cc2)c1-c1ccns1 (single isomer, unassigned) [Example 173]	< 10
CN[C@@H]1C[C@@H]2CC[C@H]1N2Cc1cccc(-c2ccc(C#N)c(F)c2)c1C1CC1 (single isomer, unassigned) [Example 178]	10 to 25
CN[C@H]1C[C@H]2CC[C@@H]1N2Cc1cccc(-c2ccc(C#N)cc2)c1-c1ccns1 (single isomer, unassigned) [Example 182]	< 10
N#Cc1ccc(-c2cccc(CN3[C@@H]4CC[C@H]3[C@@H](N)C4)c2OC(F)F)cc1F (single isomer, unassigned) [Example 183]	< 10
N#Cc1ccc(-c2cccc(CN3[C@H]4CC[C@@H]3[C@H](N)C4)c2C2CC2)cc1F (single isomer, unassigned) [Example 186]	10 to 25
